Article PMC5549482, “Activation of Endocannabinoid Receptor 2 as a Mechanism of Propofol Pretreatment-Induced Cardioprotection against Ischemia-Reperfusion Injury in Rats” (Oxidative Medicine and Cellular Longevity, 2017)

Target: T1, fatty acid amide hydrolase (FAAH) (Homo sapiens, UniProt O00519)
T1 construct: human recombinant FAAH
T1 sequence (O00519 1-579): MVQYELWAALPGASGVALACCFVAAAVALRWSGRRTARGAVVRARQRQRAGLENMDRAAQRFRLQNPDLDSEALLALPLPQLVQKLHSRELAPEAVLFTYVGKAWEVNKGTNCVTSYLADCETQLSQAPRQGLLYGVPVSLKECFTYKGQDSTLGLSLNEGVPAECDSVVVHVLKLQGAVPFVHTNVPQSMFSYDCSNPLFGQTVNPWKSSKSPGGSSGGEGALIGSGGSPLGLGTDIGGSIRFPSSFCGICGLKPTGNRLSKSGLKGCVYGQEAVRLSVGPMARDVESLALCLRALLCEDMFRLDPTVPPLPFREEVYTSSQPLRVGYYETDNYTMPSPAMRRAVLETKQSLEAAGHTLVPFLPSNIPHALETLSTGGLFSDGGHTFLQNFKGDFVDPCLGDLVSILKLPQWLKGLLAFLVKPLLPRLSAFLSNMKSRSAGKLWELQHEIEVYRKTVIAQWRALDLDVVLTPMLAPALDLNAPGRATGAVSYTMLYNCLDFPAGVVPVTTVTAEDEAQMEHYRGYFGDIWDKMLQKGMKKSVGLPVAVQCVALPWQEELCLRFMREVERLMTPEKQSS
Assay: fluorescence FAAH inhibitor screening kit (Cayman), AMC arachidonoyl amide substrate, […] propofol
Assay type: biochemical

## CC(C)c1cccc(C(C)C)c1O [propofol]
  IC50: ~28 µM
